The conditions of data set [1]: spray table water, initial pH 6.3, 60° F. The method, then:
Water samples were taken from the spray table of a sugar beet factory. […] The hydrogen peroxide concentration was measured periodically over a 60 minute period. The oxidation-reduction potential (ORP) was measured over the same period.

For data set [2] the following is noted: flume return (clarifier inlet) water, initial pH 6.4, 62° F. The method, then:
Water samples were taken from the flume return (clarifier inlet) in a sugar beet factory. […] The hydrogen peroxide concentration was measured periodically over a 60 minute period. The oxidation-reduction potential (ORP) was measured over the same period.

The mark [3] stands for this setting: initial dose 60 ppm, time 5 min.
[4] abbreviates: initial dose 60 ppm, time 30 min.
Where [5] appears, read: initial dose 60 ppm, time 45 min.
Setting [6] is: initial dose 60 ppm, time 60 min.
Where [7] appears, read: initial dose 120 ppm, time 5 min.
Setting [8] is: initial dose 120 ppm, time 30 min.
Where [9] appears, read: initial dose 120 ppm, time 45 min.
The mark [10] stands for this setting: initial dose 120 ppm, time 60 min.
Setting [11] is: initial dose 180 ppm, time 5 min.
[12] abbreviates: initial dose 180 ppm, time 30 min.
The mark [13] stands for this setting: initial dose 180 ppm, time 45 min.
The mark [14] stands for this setting: initial dose 180 ppm, time 60 min.

Where two headings read alike, the source gives them in different places.

`OO` [H2O2, hydrogen peroxide]: the H2O2 concentration in data set [1] (setting [3]) was 50 ppm; in data set [1] (setting [4]), 5 ppm; in data set [1] (setting [5]), 0.5 ppm; in data set [1] (setting [6]) it was less than 0.5 ppm; in data set [1] (setting [7]), more than 100 ppm; in data set [1] (setting [8]) it was 15 ppm. Further, the H2O2 concentration is listed as 2 ppm in data set [1] (setting [9]); 1 ppm in data set [1] (setting [10]); more than 100 ppm in data set [1] (setting [11]); 25 ppm in data set [1] (setting [12]); 5 ppm in data set [1] (setting [13]); 3 ppm in data set [1] (setting [14]). Also, the H2O2 concentration was 50 ppm in data set [2] (setting [3]); 3 ppm in data set [2] (setting [4]); 0.5 ppm in data set [2] (setting [5]); 0 ppm in data set [2] (setting [6]); more than 100 ppm in data set [2] (setting [7]); 10 ppm in data set [2] (setting [8]). Also, the H2O2 concentration in data set [2] (setting [9]) is reported as 3 ppm; in data set [2] (setting [10]), less than 0.5 ppm; in data set [2] (setting [11]), more than 100 ppm; in data set [2] (setting [12]), 25 ppm; in data set [2] (setting [13]), 5 ppm; in data set [2] (setting [14]) it was 1 ppm.
